System: 695427-040-R-J1-PDC complex spheroid viability
Assay: Anticancer human tumor 695427-040-R-J1-PDC patient-derived colon adenocarcinoma cell line growth inhibition [RAS]
Settings: for IC50: curve of first compound; for viability, T/C: stronger effect = lower value
Text: RAS pathway inhibitors in Combinations in Complex Spheroids
A high-throughput screen of multi-cell type tumor spheroids was designed to identify active combinations of RAS pathway inhibitors and targeted small molecules. Complex spheroids include a stromal component modeled by human endothelial cells (HUVEC) and fibroblasts modeled by human mesenchymal stem cells (MSCs). The concentration ranges selected for each drug and investigational agent were based upon clinically achievable concentrations if the clinical Cmax of the agent was known.
Compounds. The drugs and investigational agents: abemaciclib (NSC768073), cobimetinib (NSC768068), divarasib (GDC6063, NSC841802), docetaxel (NSC628503), GDC-1971 (RLY-1971, NSC841576), gemcitabine (NSC613327), inavolisib (NSC800729), ipatasertib (NSC767898), KB-0742 (NSC834161), MRTX-1133 (NSC836407), osimertinib (NSC779217), RMC-4630 (NSC839698), RMC-6236 (NSC851965), RMC-6291 (NSC852671), Ro-3306 (NSC812927), sapanisertib (NSC764658), SN-38 (NSC673596), staurosporine (NSC755774), SY5609 (NSC837396), and tovorafenib (DAY101, NSC766906), were obtained from the National Cancer Institute (NCI) Developmental Therapeutics Program Chemical Repository. The FDA-approved anticancer drug set is available from the NCI Developmental Therapeutics Program. […] The stock solutions were prepared in dimethyl sulfoxide (DMSO, Sigma-Aldrich, St. Louis, MO, cat. D2650) at 800-fold the tested concentration and stored at -70 degrees C prior to their use. All drugs and investigational agents were tested over a range starting from a high concentration at or near the clinical Cmax and decreasing in half-log increments. If the clinical Cmax for an agent had not been determined, the highest concentration tested was 10 microM.
Cell Culture. All cells were maintained in an incubator at 37 degrees C and 5% CO2 with 95% humidity. The PDC lines were cultured according to standard operating procedures established by the NCI PDMR. All PDCs were thawed and cultured in Matrigel-coated flasks prepared with a working solution of 1X Ham's F-12 nutrient mix, without supplementation (Invitrogen, Waltham, MA, cat. 11765054), 100 U/mL penicillin-streptomycin (Invitrogen, cat. 15140122), and 2.5% Matrigel (Corning Inc., Corning, NY, cat. 354248) for the first three passages. The 362531-283-R-J2-PDC and 782815-120-R-J1-PDC lines were cultured in 6C/Colon 1B media, which includes advanced DMEM/F-12 (Thermo Fisher Scientific, cat. 12634028), 10 mM HEPES (Thermo Fisher Scientific, cat. 15630080), 1X GlutaMAX supplement (Thermo Fisher Scientific, cat. 35050061), 0.1 mg/mL primocin (InvivoGen, San Diego, CA, cat. ant-pm-2), 10% defined fetal bovine serum, heat inactivated (HyClone Laboratories Inc., Logan, UT, cat. SH30070.03HI), 50% L-WRN conditioned media (ATCC, cat. CRL-3276), 1.25 mM N-Acetyl-L-cysteine (Sigma-Aldrich, cat. A9165), 10 mM nicotinamide (Sigma-Aldrich, cat. N0636), 1X B-27 supplement (Thermo Fisher Scientific, cat. 17504044), 1X N-2 supplement (Thermo Fisher Scientific, cat. 17502048), 50 ng/mL human EGF (Thermo Fisher Scientific, cat. PHG0311), and 10 microM Y-27632 dihydrochloride (Tocris Bioscience, cat. 1254). The K12877-001-R-J1-PDC line was cultured in 6I media, which includes all 6C/Colon 1B media plus 10 ng/mL human FGF-10 (PeproTech, cat. 100-26), 1 ng/mL human FGF-2 (PeproTech, cat. 100-18B), 1 µM prostaglandin E2 (Tocris Bioscience, cat. 2296), […] hydrocortisone (Sigma-Aldrich, cat. H4001), and […] bovine insulin (Sigma-Aldrich, cat. I6634). The K86415-001-R-J1-PDC line was cultured in 6D media, which includes all 6C/Colon 1B media components minus the L-WRN conditioned media. The 485176-168-R4-J1-PDC was cultured in PANC media, which includes all 6C/Colon 1B media plus 100 ng/mL human FGF-10 (PeproTech, cat. 100-26), 500 nM SB-431542 (Selleckchem, cat. S1067), and 10 nM gastrin (Tocris Bioscience, cat. 3006). […]
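Further: viability read after seven days of drug exposure.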
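Wherever viability, T/C is given: 100% = DMSO vehicle control viability.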

`Nc1ccn(C2OC(CO)C(O)C2(F)F)c(=O)n1` (centres undefined) + CCn1c(-c2cccnc2C(C)OC)c2c3cc(ccc31)N1CCOC(CC(NC(=O)C(C(C)C)N(C)C(=O)C3(F)CCN(C(=O)C#CC(C)(C)N(C)C)CC3)C(=O)N3CCCC(N3)C(=O)OCC(C)(C)C2)C1 was tested, and the IC50 (second compound 0.000949 µM) was greater than 1000 nM, the IC50 (second compound 0.003 µM) was greater than 1000 nM and the IC50 (second compound 0.00949 µM) was greater than 1000 nM. It also gave an IC50 (second compound 0.03 µM) greater than 1000 nM, an IC50 (second compound 0.0949 µM) greater than 1000 nM and an IC50 (second compound 0.3 µM) greater than 1000 nM. For the same compound, the viability, T/C (second compound 0.000949 µM, first compound 0.00316 µM) was 92.7%, the viability, T/C (second compound 0.000949 µM, first compound 0.01 µM) was 106% and the viability, T/C (second compound 0.000949 µM, first compound 0.0316 µM) was 98.3%. For the same compound, the viability, T/C (second compound 0.000949 µM, first compound 0.1 µM) was 82%, the viability, T/C (second compound 0.000949 µM, first compound 0.316 µM) was 77.3% and the viability, T/C (second compound 0.000949 µM, first compound 1 µM) was 67.5%. For the same compound, the viability, T/C (second compound 0.003 µM, first compound 0.00316 µM) was 79.4%, the viability, T/C (second compound 0.003 µM, first compound 0.01 µM) was 98% and the viability, T/C (second compound 0.003 µM, first compound 0.0316 µM) was 87.3%. For the same compound, the viability, T/C (second compound 0.003 µM, first compound 0.1 µM) was 71%, the viability, T/C (second compound 0.003 µM, first compound 0.316 µM) was 83.5% and the viability, T/C (second compound 0.003 µM, first compound 1 µM) was 58.6%. The viability, T/C (second compound 0.00949 µM, first compound 0.00316 µM) was 98.3%, the viability, T/C (second compound 0.00949 µM, first compound 0.01 µM) was 74.3% and the viability, T/C (second compound 0.00949 µM, first compound 0.0316 µM) was 87.2%. For the same compound, the viability, T/C (second compound 0.00949 µM, first compound 0.1 µM) was 64.8%, the viability, T/C (second compound 0.00949 µM, first compound 0.316 µM) was 82.7% and the viability, T/C (second compound 0.00949 µM, first compound 1 µM) was 63.5%. The viability, T/C (second compound 0.03 µM, first compound 0.00316 µM) was 83%, the viability, T/C (second compound 0.03 µM, first compound 0.01 µM) was 99% and the viability, T/C (second compound 0.03 µM, first compound 0.0316 µM) was 83.5%. It also gave a viability, T/C (second compound 0.03 µM, first compound 0.1 µM) of 75.9%, a viability, T/C (second compound 0.03 µM, first compound 0.316 µM) of 83.1% and a viability, T/C (second compound 0.03 µM, first compound 1 µM) of 74.2%. For the same compound, the viability, T/C (second compound 0.0949 µM, first compound 0.00316 µM) was 80%, the viability, T/C (second compound 0.0949 µM, first compound 0.01 µM) was 94.6% and the viability, T/C (second compound 0.0949 µM, first compound 0.0316 µM) was 99.6%. It also gave a viability, T/C (second compound 0.0949 µM, first compound 0.1 µM) of 73.5%, a viability, T/C (second compound 0.0949 µM, first compound 0.316 µM) of 77.8% and a viability, T/C (second compound 0.0949 µM, first compound 1 µM) of 62.2%. The viability, T/C (second compound 0.3 µM, first compound 0.00316 µM) was 63.5%, the viability, T/C (second compound 0.3 µM, first compound 0.01 µM) was 97.8% and the viability, T/C (second compound 0.3 µM, first compound 0.0316 µM) was 80.8%. For the same compound, the viability, T/C (second compound 0.3 µM, first compound 0.1 µM) was 79.3%, the viability, T/C (second compound 0.3 µM, first compound 0.316 µM) was 78.7% and the viability, T/C (second compound 0.3 µM, first compound 1 µM) was 65.7%.
Work on `CCN1CCN(Cc2ccc(Nc3ncc(F)c(-c4cc(F)c5nc(C)n(C(C)C)c5c4)n3)nc2)CC1` + C=CC(=O)N1CCN(c2nc(OCC3CCCN3C)nc3c(F)c(-c4nc(N)cc(C)c4C(F)(F)F)c(Cl)cc23)C(C)C1 yielded an IC50 (second compound 0.00316 µM) greater than 1000 nM, an IC50 (second compound 0.01 µM) greater than 1000 nM and an IC50 (second compound 0.0316 µM) greater than 1000 nM. For the same compound, the IC50 (second compound 0.1 µM) was greater than 1000 nM, the IC50 (second compound 0.316 µM) was greater than 1000 nM and the IC50 (second compound 1 µM) was greater than 1000 nM. The viability, T/C (second compound 0.00316 µM, first compound 0.00316 µM) was 93%, the viability, T/C (second compound 0.00316 µM, first compound 0.01 µM) was 88.4% and the viability, T/C (second compound 0.00316 µM, first compound 0.0316 µM) was 88.5%. The viability, T/C (second compound 0.00316 µM, first compound 0.1 µM) was 88.8%, the viability, T/C (second compound 0.00316 µM, first compound 0.316 µM) was 101% and the viability, T/C (second compound 0.00316 µM, first compound 1 µM) was 103%. It also gave a viability, T/C (second compound 0.01 µM, first compound 0.00316 µM) of 107%, a viability, T/C (second compound 0.01 µM, first compound 0.01 µM) of 92.2% and a viability, T/C (second compound 0.01 µM, first compound 0.0316 µM) of 94.1%. The viability, T/C (second compound 0.01 µM, first compound 0.1 µM) was 92.4%, the viability, T/C (second compound 0.01 µM, first compound 0.316 µM) was 101% and the viability, T/C (second compound 0.01 µM, first compound 1 µM) was 108%. It also gave a viability, T/C (second compound 0.0316 µM, first compound 0.00316 µM) of 106%, a viability, T/C (second compound 0.0316 µM, first compound 0.01 µM) of 96.3% and a viability, T/C (second compound 0.0316 µM, first compound 0.0316 µM) of 95.3%. For the same compound, the viability, T/C (second compound 0.0316 µM, first compound 0.1 µM) was 91.6%, the viability, T/C (second compound 0.0316 µM, first compound 0.316 µM) was 109% and the viability, T/C (second compound 0.0316 µM, first compound 1 µM) was 105%. For the same compound, the viability, T/C (second compound 0.1 µM, first compound 0.00316 µM) was 89%, the viability, T/C (second compound 0.1 µM, first compound 0.01 µM) was 102% and the viability, T/C (second compound 0.1 µM, first compound 0.0316 µM) was 90.3%. For the same compound, the viability, T/C (second compound 0.1 µM, first compound 0.1 µM) was 92.1%, the viability, T/C (second compound 0.1 µM, first compound 0.316 µM) was 107% and the viability, T/C (second compound 0.1 µM, first compound 1 µM) was 110%. The viability, T/C (second compound 0.316 µM, first compound 0.00316 µM) was 95.5%, the viability, T/C (second compound 0.316 µM, first compound 0.01 µM) was 94.3% and the viability, T/C (second compound 0.316 µM, first compound 0.0316 µM) was 96.7%. It also gave a viability, T/C (second compound 0.316 µM, first compound 0.1 µM) of 94.7%, a viability, T/C (second compound 0.316 µM, first compound 0.316 µM) of 101% and a viability, T/C (second compound 0.316 µM, first compound 1 µM) of 97%. For the same compound, the viability, T/C (second compound 1 µM, first compound 0.00316 µM) was 94.8%, the viability, T/C (second compound 1 µM, first compound 0.01 µM) was 85.6% and the viability, T/C (second compound 1 µM, first compound 0.0316 µM) was 93.7%. The viability, T/C (second compound 1 µM, first compound 0.1 µM) was 96.6%, the viability, T/C (second compound 1 µM, first compound 0.316 µM) was 99% and the viability, T/C (second compound 1 µM, first compound 1 µM) was 94.8%.
